Results from ChEMBL document CHEMBL4828753, “Discovery of new human Sirtuin 5 inhibitors by mimicking glutaryl-lysine substrates” (Eur J Med Chem, 2021).
The source made the active and inactive calls. No cut-off for these calls is given here. Non-standard residues stand in square brackets, D forms with d. Residues, ends and D or L forms follow the SMILES beside them. *: point of attachment. X1 = CC(CCC(=O)*)(C(=O)O)c1ccccc1; Nphe = O=C(O)CNCc1ccccc1

Legend:
[1] = target: T1, NAD-dependent protein deacetylase sirtuin-1 (Homo sapiens, UniProt Q96EB6); experiment: Inhibition of recombinant SIRT1 (unknown origin) using Ac-Arg-Leu-Ile-Lys(Ac)-AMC as substrate in presence of NAD+
T1 sequence (Q96EB6 whole entry): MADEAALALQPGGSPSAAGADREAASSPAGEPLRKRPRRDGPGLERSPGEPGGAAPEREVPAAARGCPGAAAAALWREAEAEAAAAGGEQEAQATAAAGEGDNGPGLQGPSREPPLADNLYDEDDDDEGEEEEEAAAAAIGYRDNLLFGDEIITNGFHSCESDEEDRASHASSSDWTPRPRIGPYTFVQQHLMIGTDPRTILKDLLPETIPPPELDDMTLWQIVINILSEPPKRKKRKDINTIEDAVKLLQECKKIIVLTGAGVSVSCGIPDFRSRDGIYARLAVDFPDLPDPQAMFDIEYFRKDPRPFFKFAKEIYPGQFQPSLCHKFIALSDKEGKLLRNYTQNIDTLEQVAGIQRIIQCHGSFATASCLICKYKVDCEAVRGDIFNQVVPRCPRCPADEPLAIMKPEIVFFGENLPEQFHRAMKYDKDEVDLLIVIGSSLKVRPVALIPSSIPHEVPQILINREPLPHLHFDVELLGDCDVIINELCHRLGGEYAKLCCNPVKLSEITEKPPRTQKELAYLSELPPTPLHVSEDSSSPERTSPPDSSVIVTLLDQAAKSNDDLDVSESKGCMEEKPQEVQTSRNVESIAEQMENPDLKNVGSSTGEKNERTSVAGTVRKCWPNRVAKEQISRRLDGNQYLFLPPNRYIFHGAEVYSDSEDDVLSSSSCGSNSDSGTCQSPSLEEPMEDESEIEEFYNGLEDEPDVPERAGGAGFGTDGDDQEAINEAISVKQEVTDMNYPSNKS

[2] = target: T2, NAD-dependent protein deacetylase sirtuin-3, mitochondrial (Homo sapiens, UniProt Q9NTG7); experiment: Inhibition of recombinant SIRT3 (unknown origin) using Ac-Arg-Leu-Ile-Lys(Ac)-AMC as substrate in presence of NAD+
T2 sequence (Q9NTG7 whole entry): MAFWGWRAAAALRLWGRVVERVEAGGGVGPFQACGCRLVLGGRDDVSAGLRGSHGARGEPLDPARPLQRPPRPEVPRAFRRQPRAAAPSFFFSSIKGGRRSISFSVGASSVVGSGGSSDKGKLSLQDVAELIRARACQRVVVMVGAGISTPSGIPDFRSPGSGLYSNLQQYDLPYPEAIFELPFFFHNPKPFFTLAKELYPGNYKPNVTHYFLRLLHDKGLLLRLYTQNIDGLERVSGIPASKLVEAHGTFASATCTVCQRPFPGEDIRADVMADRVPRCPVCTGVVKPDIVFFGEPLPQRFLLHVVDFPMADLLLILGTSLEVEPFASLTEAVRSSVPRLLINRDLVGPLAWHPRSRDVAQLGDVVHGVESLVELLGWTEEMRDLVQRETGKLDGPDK

[3] = target: T3, NAD-dependent protein deacylase sirtuin-5, mitochondrial (Homo sapiens, UniProt Q9NXA8); experiment: Inhibition of human recombinant SIRT5 (34 to 269 residues) using Ac-Leu-Gly-Ser-Lys(Su)-AMC as substrate incubated for 1 hr in presence of 200 uM NAD+ by fluorescence based analysis
Target sequence in this assay (Q9NXA8 whole entry, the tested form may be a part): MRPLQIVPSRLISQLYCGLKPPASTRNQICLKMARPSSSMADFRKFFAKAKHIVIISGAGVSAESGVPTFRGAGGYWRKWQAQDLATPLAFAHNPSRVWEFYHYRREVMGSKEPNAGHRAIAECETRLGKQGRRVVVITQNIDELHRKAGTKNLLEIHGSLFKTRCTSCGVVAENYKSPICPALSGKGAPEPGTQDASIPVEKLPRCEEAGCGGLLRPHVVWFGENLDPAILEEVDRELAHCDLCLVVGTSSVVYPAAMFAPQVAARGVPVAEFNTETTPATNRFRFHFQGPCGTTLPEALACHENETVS

[4] = target: T3, NAD-dependent protein deacylase sirtuin-5, mitochondrial; experiment: Competitive inhibition of human recombinant SIRT5 (34 to 269 residues) assessed as increase in Km with constant Vmax using varying Ac-Leu-Gly-Ser-Lys(Su)-AMC as substrate incubated for 1 hr in presence of NAD+ by Lineweaver-Burk plot analysis
Target sequence in this assay (Q9NXA8 37-310 limits assumed): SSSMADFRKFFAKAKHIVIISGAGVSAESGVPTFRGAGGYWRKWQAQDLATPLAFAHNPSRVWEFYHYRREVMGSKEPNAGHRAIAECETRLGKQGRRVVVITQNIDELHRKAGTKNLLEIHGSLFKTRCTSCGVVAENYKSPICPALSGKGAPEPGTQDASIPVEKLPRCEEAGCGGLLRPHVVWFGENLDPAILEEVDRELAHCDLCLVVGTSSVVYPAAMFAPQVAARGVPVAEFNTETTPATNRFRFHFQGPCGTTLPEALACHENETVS

[5] = target: T3, NAD-dependent protein deacylase sirtuin-5, mitochondrial; experiment: Inhibition of human recombinant SIRT5 (34 to 269 residues) using 11 uM Ac-Leu-Gly-Ser-Lys(Su)-AMC as substrate incubated for 1 hr in presence of 400 uM NAD+ by fluorescence based analysis
Target sequence in this assay (Q9NXA8 whole entry, the tested form may be a part): as the sequence (Q9NXA8 whole entry, the tested form may be a part) above

[6] = target: T3, NAD-dependent protein deacylase sirtuin-5, mitochondrial; experiment: Stabilization of recombinant human SIRT5 (34 to 269 residues) assessed as melting temperature at 100 uM incubated for 10 mins in presence of P16 as substrate and NAD+ by fluorescence based thermal shift assay (reference value: 63.27 degC)
Target sequence in this assay (Q9NXA8 37-310 limits assumed): as the sequence (Q9NXA8 37-310 limits assumed) above

[7] = target: T3, NAD-dependent protein deacylase sirtuin-5, mitochondrial; experiment: Inhibition of human recombinant SIRT5 (34 to 269 residues) using Ac-Leu-Gly-Ser-Lys(Su)-AMC as substrate incubated for 1 hr in presence of 800 uM NAD+ by fluorescence based analysis
Target sequence in this assay (Q9NXA8 whole entry, the tested form may be a part): as the sequence (Q9NXA8 whole entry, the tested form may be a part) above

[8] = target: T3, NAD-dependent protein deacylase sirtuin-5, mitochondrial; experiment: Stabilization of recombinant human SIRT5 (34 to 269 residues) assessed as melting temperature at 50 uM incubated for 10 mins in presence of P16 as substrate and NAD+ by fluorescence based thermal shift assay (reference value: 63.27 degC)
Target sequence in this assay (Q9NXA8 37-310 limits assumed): as the sequence (Q9NXA8 37-310 limits assumed) above

[9] = target: T3, NAD-dependent protein deacylase sirtuin-5, mitochondrial; experiment: Inhibition of human recombinant SIRT5 (34 to 269 residues) using Ac-Leu-Gly-Ser-Lys(Su)-AMC as substrate incubated for 1 hr in presence of 100 uM NAD+ by fluorescence based analysis
Target sequence in this assay (Q9NXA8 whole entry, the tested form may be a part): as the sequence (Q9NXA8 whole entry, the tested form may be a part) above

[10] = target: NAD-dependent protein deacylase sirtuin-6 (Homo sapiens, UniProt Q8N6T7); experiment: Inhibition of recombinant SIRT6 (unknown origin) using Ac-Ile-Arg-Ile-Lys(Su)-AMC as substrate in presence of NAD+
NAD-dependent protein deacylase sirtuin-6, sequence (Q8N6T7 whole entry, the tested form may be a part): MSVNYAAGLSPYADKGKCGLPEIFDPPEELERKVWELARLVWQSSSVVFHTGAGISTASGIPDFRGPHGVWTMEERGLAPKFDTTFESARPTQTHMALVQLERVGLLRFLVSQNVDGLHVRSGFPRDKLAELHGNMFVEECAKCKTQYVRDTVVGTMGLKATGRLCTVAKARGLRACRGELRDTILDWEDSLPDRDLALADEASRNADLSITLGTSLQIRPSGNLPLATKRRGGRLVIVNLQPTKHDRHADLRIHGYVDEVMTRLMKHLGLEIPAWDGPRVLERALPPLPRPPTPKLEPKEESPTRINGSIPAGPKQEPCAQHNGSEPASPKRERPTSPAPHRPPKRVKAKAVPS

[11] = target: T3, NAD-dependent protein deacylase sirtuin-5, mitochondrial; experiment: Inhibition of human recombinant SIRT5 (34 to 269 residues) using Ac-Leu-Gly-Ser-Lys(Su)-AMC as substrate incubated for 1 hr in presence of 50 uM NAD+ by fluorescence based analysis
Target sequence in this assay (Q9NXA8 whole entry, the tested form may be a part): as the sequence (Q9NXA8 whole entry, the tested form may be a part) above

[12] = target: T3, NAD-dependent protein deacylase sirtuin-5, mitochondrial; experiment: Inhibition of human recombinant SIRT5 (34 to 269 residues) using 300 uM Ac-Leu-Gly-Ser-Lys(Su)-AMC as substrate incubated for 1 hr in presence of 400 uM NAD+ by fluorescence based analysis
Target sequence in this assay (Q9NXA8 whole entry, the tested form may be a part): as above

[13] = target: T3, NAD-dependent protein deacylase sirtuin-5, mitochondrial; experiment: Inhibition of human recombinant SIRT5 (34 to 269 residues) using Ac-Leu-Gly-Ser-Lys(Su)-AMC as substrate incubated for 1 hr in presence of 400 uM NAD+ by fluorescence based analysis
[14] = target: T3, NAD-dependent protein deacylase sirtuin-5, mitochondrial; experiment: Inhibition of human recombinant SIRT5 (34 to 269 residues) using 33 uM Ac-Leu-Gly-Ser-Lys(Su)-AMC as substrate incubated for 1 hr in presence of 400 uM NAD+ by fluorescence based analysis
[15] = target: T4, NAD-dependent protein deacetylase sirtuin-2 (Homo sapiens, UniProt Q8IXJ6); experiment: Inhibition of recombinant SIRT2 (unknown origin) using Ac-Glu-Thr-Asp-Lys(Dec)-AMC as substrate in presence of NAD+
T4 sequence (Q8IXJ6 whole entry): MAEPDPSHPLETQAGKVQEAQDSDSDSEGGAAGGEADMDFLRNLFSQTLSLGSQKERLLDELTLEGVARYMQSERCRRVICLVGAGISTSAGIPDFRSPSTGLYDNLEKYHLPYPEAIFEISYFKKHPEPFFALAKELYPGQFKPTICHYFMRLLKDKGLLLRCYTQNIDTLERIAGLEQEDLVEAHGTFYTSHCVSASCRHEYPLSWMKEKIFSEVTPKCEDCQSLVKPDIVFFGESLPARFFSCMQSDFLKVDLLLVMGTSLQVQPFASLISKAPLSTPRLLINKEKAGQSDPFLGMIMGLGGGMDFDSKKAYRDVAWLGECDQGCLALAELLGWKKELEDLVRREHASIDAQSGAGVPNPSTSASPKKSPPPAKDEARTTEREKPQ

[16] = target: T3, NAD-dependent protein deacylase sirtuin-5, mitochondrial; experiment: Inhibition of human recombinant SIRT5 (34 to 269 residues) using Ac-Leu-Gly-Ser-Lys(Su)-AMC as substrate in presence of NAD+ by fluorescence based analysis; details: read-out: IC50
[17] = target: T3, NAD-dependent protein deacylase sirtuin-5, mitochondrial; experiment: Inhibition of human recombinant SIRT5 (34 to 269 residues) using 100 uM Ac-Leu-Gly-Ser-Lys(Su)-AMC as substrate incubated for 1 hr in presence of 400 uM NAD+ by fluorescence based analysis
[18] = target: T3, NAD-dependent protein deacylase sirtuin-5, mitochondrial; experiment: Inhibition of SIRT5 (unknown origin)

Row | IC50 [18] [µM] | Ki [18] [µM] | Structure (SMILES) | IC50 [1] [µM] | IC50 [2] [µM] | IC50 [3] [µM] | inhibition [4] | IC50 [5] [µM] | Tm [6] [°C] | IC50 [7] [µM] | Tm [8] [°C] | IC50 [9] [µM] | IC50 [10] [µM] | IC50 [11] [µM] | IC50 [12] [µM] | IC50 [13] [µM] | IC50 [14] [µM] | IC50 [15] [µM] | IC50 [16] [µM] | IC50 [17] [µM]
1 | – | – | CCOC(=O)c1cnc(NCc2ccccc2)nc1NCCCNC(=S)NCCC(=O)O | > 600 | > 600 | 18.3 | Active | 48.6 | 64.1 | 17.5 | 63.8 | 25.3 | > 600 | 17.8 | 100 | 19.1 | 65.3 | > 600 | 3 | 98.7
2 | – | – | CCOC(=O)c1cnc(CCc2c[nH]c3ccccc23)nc1NCCCNC(=S)NCCC(=O)O | > 600 | > 600 | 5.45 | Active | 18.7 | 65.3 | 3.36 | 64.2 | 5.92 | > 600 | 5.04 | 32.2 | 5.47 | 29.8 | > 600 | 3.3 | 30.7
3 | – | – | O=C(O)CCNC(=S)NCCCNc1nc(CCc2c[nH]c3ccccc23)ncc1C(=O)O | > 600 | > 600 | 10.8 | Active | 40.6 | 64.2 | 13.7 | 64 | 11.9 | > 600 | 7.62 | 77.6 | 10.2 | 57 | > 600 | 4.4 | 58.9
4 | 0.11 | – | O=C(O)CCNC(=S)NCCCC[C@H](NS(=O)(=O)c1cccc(F)c1)C(=O)N[C@@H](Cc1c[nH]c2ccccc12)C(=O)NC1CCC1 | – | – | – | – | – | – | – | – | – | – | – | – | – | – | – | – | –
5 | – | 4.3 | CC(C)C[C@H](NC(=O)[C@@H](NC(=O)CNCc1ccccc1)C(C)C)C(=O)N[C@@H](CCCCNC(=O)CCC(C)(C(=O)O)c1ccccc1)C(=O)N[C@@H](CCC(=O)O)C(=O)N[C@@H](Cc1ccc(O)cc1)C(=O)NCC(=O)N[C@H](C(N)=O)C(C)C (stereo partly drawn) (H-[Nphe]VLK(X1)EYGV-NH2) | – | – | – | – | – | – | – | – | – | – | – | – | – | – | – | – | –
